The text below walks through data of patent publication US12351606B2, “Compositions and related methods for modulating transcriptional activation by incorporating gag motifs upstream of core promoter elements” (UNIVERSITY OF VIRGINIA PATENT FOUNDATION, priority 2007, dated 2025).

One series deals with BY-2 cells. Nature of the series: GUS reporter activity of tetramer promoter constructs in transformed BY-2 cells with or without MeJA. It is filed as cell-based, N. tabacum. As to conditions: tetramer upstream of minimal CaMV 35S -46 promoter. The protocol:
Promoter constructs were produced by annealing phosphorylated upper- and lower-strand oligonucleotides to create various elements containing a SpeI restriction site at the 5′ end and an XbaI restriction site at the 3′ end. These were introduced into MS23-β-glucuronidase (“GUS”) between the SpeI and XbaI sites.
Ten colonies of transformed Agrobacteria (A. tumefaciens) containing the promoter construct were picked from a fresh plate and inoculated into 10 ml YEB, containing 50 mg/l rifampicin and 50 mg/l kanamycin, in a 50 ml flask. Cell cultures were incubated overnight at 28° C. with shaking, an overnight culture (1 ml) was taken. Cultures were diluted with YEB plus antibiotics so that the OD600 was approximately 0.3. Agrobacteria were grown at 28° C. with shaking until the OD600 was about 0.6. Cells were pelleted by centrifugation. Supernatants were removed and agrobacteria were resuspended in 0.5 ml MS. Approximately 3 ml of wild type BY-2 cells were introduced into Petri dishes. Approximately 100 μl of undiluted Agrobacteria or 1:10 or 1:100 diluted agrobacteria were mixed with the BY-2 cells to infect them. After 2 days, the BY-2 cells were washed with 30 ml MS medium and left for 30 min before the supernatant was removed. Approximately 2 ml aliquots of the transformed BY-2 cells were deposited onto MS plates containing vitamins, 50 mg/l kanamycin, and 500 mg/l cefotaxin. Transformed calli were visible after 3-5 weeks.
Single transformed calli were picked from selection plates and put on fresh MS+agar plates containing vitamins, 50 mg/l kanamycin, and 500 mg/l cefotaxin. Additionally, small amounts of calli were deposited into micro-wells (Corning 6 well culture cluster) with 6 ml MS medium containing vitamins, kanamycin, and cefotaxin. Samples in the micro-wells were grown at 28° C. for 4 days with shaking. Approximately 1 ml cells from the micro-wells were subcultured to new micro-wells with 5 ml fresh MS medium with vitamins, 50 mg/l kanamycin, and 500 mg/l cefotaxin. BY-2 cells were grown at 28° C. for 3 days with shaking. Then ten independent lines were chosen and 0.4 ml cells from each of the liquid cultures were subcultured to a 250 ml Erlenmeyer flask with 45 ml MS medium, vitamins, 50 mg/l kanamycin, and 500 mg/l cefotaxin. Cells were grown at 28° C. for 2 days with shaking. Then 10 ml cells from each flask were introduced into new 250 ml Erlenmeyer flasks with 40 ml MS medium containing vitamins without hormones (−2.4D) and antibiotics. The BY-2 cells were grown at 28° C. for 1 day with shaking. After 1 day BY-2 cells were treated with different amounts of methyl jasmonate (MeJA).
(§1) Histochemical staining for GUS activity and GUS activity determination was performed as described by Jefferson (1987).
An improved method for the analysis of promoter activity in BY-2 cells was developed. Transformed BY-2 calli were grown on selection plates and subsequently grown as liquid cultures in MS medium. For each individual construct ten independent lines were chosen. Approximately 0.5 ml cells from each of the liquid cultures were subcultured together in MS medium that contain vitamins, kanamycin, and cefotaxin. After 2 days, the cells were diluted in fresh MS medium containing vitamins without hormones (−2.4D) to reduce any stress response induced by cell density, and to deplete the medium of auxin. It has been shown previously that high auxin levels in the medium decreased the extent of MeJA-induced NtPMT:GUS expression (Xu and Timko, 2004). After 1 day BY-2 cells were treated with 100 μM MeJA. After 48 hours cell samples were taken, and were used to determine the GUS activity. For statistical analysis, each experiment was repeated four times and to avoid day to day variation in the GUS activities, and the data were normalized. These cell culture conditions ensured both a rapid and uniform response to MeJA.

Another series deals with tobacco plants. Nature of the series: Histochemical GUS staining of transgenic tobacco plants after wounding or MeJA. In kind it is in vivo, N. tabacum. As to conditions: tetramer constructs, GUS staining after 72 hours. The protocol: as §1
Ten colonies of the transformed Agrobacteria containing a promoter construct of interest were picked from a fresh plate and inoculated into 10 ml YEB, containing 50 mg/l rifampicin, and 50 mg/l kanamycin, in a 50 ml flask. Cell cultures were incubated overnight at 28° C. with shaking. Approximately 1 ml of overnight culture was taken. Cultures were diluted with 50 ml YEB plus antibiotics so that the OD600 was approximately 0.3. Agrobacteria were grown at 28° C. with shaking until the OD600 was approximately 0.6. The cells were then pelleted by centrifugation. Supernatants were removed and Agrobacteria were resuspended in 40 ml fresh YEB by pipetting with a 1 ml tip. Wild type tobacco leaves were cut into small pieces under sterile conditions and put in a 50 ml beaker. Agrobacteria solution was poured onto the tobacco leaves and the mixture was swirled together and left for 5 min for the Agrobacteria to infect the leaves. Infected leaves were put on MS plates with filter paper (to limit Agrobacteria grow). […] Plates were left for 2 days in the dark. After 2 days the tobacco pieces were transferred onto MS plates containing 1 mg/l 6 BA, 500 mg/l cefotaxin and 100 mg/l kanamycin. Samples were left in the light at 28° C. […]

As for “AT-rich element: SEQ ID NO:3; tetramer in front of minimal CaMV 35S -46 promoter (DNA TAATGAATTTTTAACTATTATATTATAT; expressed or natural sequence; listed as Nicotiana tabacum)”, in the series on BY-2 cells, the “promoter activity / promoter strength” value is reported as “only low level promoter activity”. Further, the “response of GUS expression to MeJA treatment” value in the series on BY-2 cells (100 μM MeJA, 48 hours) is recorded as “characteristic reduction in promoter activity after MeJA addition”.
Turning to “G Box-like element: SEQ ID NO:2 (GCACGTTG); tetramer in front of minimal CaMV 35S -46 promoter (expressed or natural sequence; listed as Nicotiana tabacum)”, in the series with BY-2 cells, the “promoter activity / promoter strength” value is reported as “Low promoter activity”. Also, the “response of GUS expression to MeJA treatment” value in the series with BY-2 cells (100 μM MeJA, 48 hours) was “characteristic reduction after MeJA exposure”.
For “GCC-like box: SEQ ID NO:4; tetramer in front of minimal CaMV 35S -46 promoter (DNA TGCGCCCTCCACTCCTCGGTGTCCA; expressed or natural sequence; listed as Nicotiana tabacum)” the same measures were “only low level promoter activity” and “characteristic reduction in every line tested after MeJA addition”.

B1: GAG motif: SEQ ID NO:1 regulatory region of NtPMT1a promoter: G-box like, AT-rich and GCC-like box elements; tested as tetramer before CaMV 35S -46::GUS (nucleic acid, listed as Nicotiana tabacum)
DNA: CTAACCCTGCACGTTGTAATGAATTTTTAACTATTATATTATATCGAGTTGCGCCCTCCACTCCTCGGTGTCCA
modifications: expressed or natural sequence
notes: tested as tetramer before CaMV 35S -46::GUS
B1: the “promoter activity / promoter strength” value in the series with BY-2 cells is recorded as “much stronger than the G Box-GCC element”. In addition, in the series with BY-2 cells (100 μM MeJA, 48 hours), the “MeJA inducibility of GUS expression (relative fold inducibility)” value was “approximately 35 fold”. For the same molecule, the “MeJA-inducible expression in roots” value in the series with tobacco plants (25 μM MeJA) is “showed inducibility by MeJA”. In the series on tobacco plants (wounding of roots or leaves), the “wound-inducible expression in roots” value is “can direct wound-inducible expression”.
